PubChem BioAssay AID1963834 (Molecular Pharmacology Branch, DTP, NCI, 2024)
pIC50: −log10 of the molar value.

Test system: 873145-292-R-J1-PDC complex spheroid viability
Experiment: Anticancer human tumor 873145-292-R-J1-PDC patient-derived renal clear cell carcinoma cell line growth inhibition [POLQ]
Conditions: for pIC50: curve of first compound; for viability, T/C: stronger effect = lower value
In short: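 Complex spheroid viability model combining PDC tumour cells with endothelial (HUVEC) and MSC stromal cells. Novobiocin, ART-558 or RP6685 were tested singly and in combination with standard and investigational anticancer drugs. Each was titrated in half-log steps from near clinical Cmax, or from 10 microM where Cmax was unknown.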

[1] = second compound 0.0316 µM, first compound 0.0316 µM
[2] = second compound 0.0316 µM, first compound 0.1 µM
[3] = second compound 0.0316 µM, first compound 0.316 µM
[4] = second compound 0.0316 µM, first compound 1 µM
[5] = second compound 0.0316 µM, first compound 3.16 µM
[6] = second compound 0.0316 µM, first compound 10 µM
[7] = second compound 0.1 µM, first compound 0.0316 µM
[8] = second compound 0.1 µM, first compound 0.1 µM
[9] = second compound 0.1 µM, first compound 0.316 µM
[10] = second compound 0.1 µM, first compound 1 µM
[11] = second compound 0.1 µM, first compound 3.16 µM
[12] = second compound 0.1 µM, first compound 10 µM
[13] = second compound 0.316 µM, first compound 0.0316 µM
[14] = second compound 0.316 µM, first compound 0.1 µM
[15] = second compound 0.316 µM, first compound 0.316 µM
[16] = second compound 0.316 µM, first compound 1 µM
[17] = second compound 0.316 µM, first compound 3.16 µM
[18] = second compound 0.316 µM, first compound 10 µM
[19] = second compound 1 µM, first compound 0.0316 µM
[20] = second compound 1 µM, first compound 0.1 µM
[21] = second compound 1 µM, first compound 0.316 µM
[22] = second compound 1 µM, first compound 1 µM
[23] = second compound 1 µM, first compound 3.16 µM
[24] = second compound 1 µM, first compound 10 µM
[25] = second compound 3.16 µM, first compound 0.0316 µM
[26] = second compound 3.16 µM, first compound 0.1 µM
[27] = second compound 3.16 µM, first compound 0.316 µM
[28] = second compound 3.16 µM, first compound 1 µM
[29] = second compound 3.16 µM, first compound 3.16 µM
[30] = second compound 3.16 µM, first compound 10 µM
[31] = second compound 10 µM, first compound 0.0316 µM
[32] = second compound 10 µM, first compound 0.1 µM
[33] = second compound 10 µM, first compound 0.316 µM
[34] = second compound 10 µM, first compound 1 µM
[35] = second compound 10 µM, first compound 3.16 µM
[36] = second compound 10 µM, first compound 10 µM
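Note: spheroids exposed to compounds for 7 days before viability readout.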
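Throughout, for viability, T/C: luminescence signal used as surrogate for viable cell content; 100% = DMSO vehicle control viability.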

C#Cc1c(F)ccc2cc(O)cc(-c3ncc4c(N5CC6CCC(C5)N6)nc(OCC56CCCN5CC(F)C6)nc4c3F)c12 (stereo unspecified) + COC1C(OC(N)=O)C(O)C(Oc2ccc3c(O)c(NC(=O)c4ccc(O)c(CC=C(C)C)c4)c(=O)oc3c2C)OC1(C)C
pIC50 (second compound 0.0316 µM): < 5.00
pIC50 (second compound 0.1 µM): < 5.00
pIC50 (second compound 0.316 µM): < 5.00
pIC50 (second compound 1 µM): < 5.00
pIC50 (second compound 3.16 µM): < 5.00
pIC50 (second compound 10 µM): < 5.00
viability, T/C [1]: 97.7%
viability, T/C [2]: 92.7%
viability, T/C [3]: 95.1%
viability, T/C [4]: 83.9%
viability, T/C [5]: 86.5%
viability, T/C [6]: 89.6%
viability, T/C [7]: 102%
viability, T/C [8]: 97.7%
viability, T/C [9]: 99%
viability, T/C [10]: 75.7%
viability, T/C [11]: 79.6%
viability, T/C [12]: 82.7%
viability, T/C [13]: 98%
viability, T/C [14]: 85.7%
viability, T/C [15]: 82.1%
viability, T/C [16]: 77.8%
viability, T/C [17]: 86.5%
viability, T/C [18]: 80.4%
viability, T/C [19]: 94.4%
viability, T/C [20]: 97.1%
viability, T/C [21]: 99.7%
viability, T/C [22]: 76%
viability, T/C [23]: 82.2%
viability, T/C [24]: 88.3%
viability, T/C [25]: 92.5%
viability, T/C [26]: 92.9%
viability, T/C [27]: 83.4%
viability, T/C [28]: 79.3%
viability, T/C [29]: 86.4%
viability, T/C [30]: 84%
viability, T/C [31]: 86.2%
viability, T/C [32]: 95.5%
viability, T/C [33]: 82.1%
viability, T/C [34]: 86.3%
viability, T/C [35]: 86.9%
viability, T/C [36]: 82.1%

O=C(Nc1ccc(O)c(NS(=O)(=O)c2ccc(F)cc2)c1)c1ccc(-c2ccccc2)cc1 + COC1C(OC(N)=O)C(O)C(Oc2ccc3c(O)c(NC(=O)c4ccc(O)c(CC=C(C)C)c4)c(=O)oc3c2C)OC1(C)C
pIC50 (second compound 0.0316 µM): < 5.00
pIC50 (second compound 0.1 µM): < 5.00
pIC50 (second compound 0.316 µM): < 5.00
pIC50 (second compound 1 µM): < 5.00
pIC50 (second compound 3.16 µM): < 5.00
pIC50 (second compound 10 µM): < 5.00
viability, T/C [1]: 113%
viability, T/C [2]: 99.8%
viability, T/C [3]: 95.7%
viability, T/C [4]: 101%
viability, T/C [5]: 98.5%
viability, T/C [6]: 101%
viability, T/C [7]: 99.9%
viability, T/C [8]: 106%
viability, T/C [9]: 88.9%
viability, T/C [10]: 94.8%
viability, T/C [11]: 97.6%
viability, T/C [12]: 101%
viability, T/C [13]: 105%
viability, T/C [14]: 92.7%
viability, T/C [15]: 96.2%
viability, T/C [16]: 98.6%
viability, T/C [17]: 110%
viability, T/C [18]: 98.1%
viability, T/C [19]: 106%
viability, T/C [20]: 103%
viability, T/C [21]: 91.6%
viability, T/C [22]: 97.2%
viability, T/C [23]: 104%
viability, T/C [24]: 91.1%
viability, T/C [25]: 97.3%
viability, T/C [26]: 94.8%
viability, T/C [27]: 102%
viability, T/C [28]: 92.9%
viability, T/C [29]: 99.2%
viability, T/C [30]: 109%
viability, T/C [31]: 105%
viability, T/C [32]: 95.2%
viability, T/C [33]: 92.5%
viability, T/C [34]: 100%
viability, T/C [35]: 108%
viability, T/C [36]: 108%

CC(=O)O[C@H]1C(=O)[C@@]2(C)[C@H]([C@H](OC(=O)c3ccccc3)[C@]3(O)C[C@H](OC(=O)[C@H](O)[C@@H](NC(=O)c4ccccc4)c4ccccc4)C(C)=C1C3(C)C)[C@]1(OC(C)=O)CO[C@@H]1C[C@@H]2O + Cc1cccc(N(C)C(=O)C2C(O)CCN2c2nc(C)cc(C(F)(F)F)c2C#N)c1
pIC50 (second compound 0.0316 µM): < 5.52
pIC50 (second compound 0.1 µM): < 5.52
pIC50 (second compound 0.316 µM): < 5.52
pIC50 (second compound 1 µM): < 5.52
pIC50 (second compound 3.16 µM): < 5.52
pIC50 (second compound 10 µM): < 5.52
viability, T/C (second compound 0.0316 µM, first compound 0.00949 µM): 92.4%
viability, T/C (second compound 0.0316 µM, first compound 0.03 µM): 75.9%
viability, T/C (second compound 0.0316 µM, first compound 0.0949 µM): 74.7%
viability, T/C (second compound 0.0316 µM, first compound 0.3 µM): 69.1%
viability, T/C (second compound 0.0316 µM, first compound 0.949 µM): 72.8%
viability, T/C (second compound 0.0316 µM, first compound 3 µM): 74.9%
viability, T/C (second compound 0.1 µM, first compound 0.00949 µM): 92%
viability, T/C (second compound 0.1 µM, first compound 0.03 µM): 99%
viability, T/C (second compound 0.1 µM, first compound 0.0949 µM): 67%
viability, T/C (second compound 0.1 µM, first compound 0.3 µM): 77.7%
viability, T/C (second compound 0.1 µM, first compound 0.949 µM): 68.6%
viability, T/C (second compound 0.1 µM, first compound 3 µM): 66.3%
viability, T/C (second compound 0.316 µM, first compound 0.00949 µM): 94.5%
viability, T/C (second compound 0.316 µM, first compound 0.03 µM): 82.4%
viability, T/C (second compound 0.316 µM, first compound 0.0949 µM): 76.2%
viability, T/C (second compound 0.316 µM, first compound 0.3 µM): 74.1%
viability, T/C (second compound 0.316 µM, first compound 0.949 µM): 76.5%
viability, T/C (second compound 0.316 µM, first compound 3 µM): 70.3%
viability, T/C (second compound 1 µM, first compound 0.00949 µM): 79.7%
viability, T/C (second compound 1 µM, first compound 0.03 µM): 84.3%
viability, T/C (second compound 1 µM, first compound 0.0949 µM): 81.8%
viability, T/C (second compound 1 µM, first compound 0.3 µM): 77.8%
viability, T/C (second compound 1 µM, first compound 0.949 µM): 73.3%
viability, T/C (second compound 1 µM, first compound 3 µM): 69.3%
viability, T/C (second compound 3.16 µM, first compound 0.00949 µM): 84.7%
viability, T/C (second compound 3.16 µM, first compound 0.03 µM): 85.6%
viability, T/C (second compound 3.16 µM, first compound 0.0949 µM): 72.5%
viability, T/C (second compound 3.16 µM, first compound 0.3 µM): 71.5%
viability, T/C (second compound 3.16 µM, first compound 0.949 µM): 80.3%
viability, T/C (second compound 3.16 µM, first compound 3 µM): 80.4%
viability, T/C (second compound 10 µM, first compound 0.00949 µM): 75.4%
viability, T/C (second compound 10 µM, first compound 0.03 µM): 80.3%
viability, T/C (second compound 10 µM, first compound 0.0949 µM): 75.8%
viability, T/C (second compound 10 µM, first compound 0.3 µM): 65.9%
viability, T/C (second compound 10 µM, first compound 0.949 µM): 75.6%
viability, T/C (second compound 10 µM, first compound 3 µM): 71.2%
